Test results as given in ChEMBL document CHEMBL6103567, “A novel pyridine-2-one AMPK inhibitor: Discovery, mechanism, and in vivo evaluation in a hypoxic pulmonary arterial hypertension rat model” (Eur J Med Chem, 2025).

Key:
[1] = Antiproliferative activity against human PASMC cells assessed as cell viability incubated for 48 hrs under hypoxia condition by CCK-8 assay; assay type: toxicity, cell-based
[2] = Induction of apoptosis in hypoxia-induced human PASMC cells assessed as late apoptotic cells at 5 uM incubated for 12 hrs by Annexin V/FITC staining based flow cytometry analysis (reference value: 0.88%); assay type: functional
[3] = Induction of apoptosis in hypoxia-induced human PASMC cells assessed as early apoptotic cells at 5 uM incubated for 12 hrs by Annexin V/FITC staining based flow cytometry analysis (reference value: 10.17%); assay type: functional
[4] = Induction of apoptosis in hypoxia-induced human PASMC cells assessed as viable cells at 5 uM incubated for 12 hrs by Annexin V/FITC staining based flow cytometry analysis (reference value: 88.26%); assay type: functional; conditions: read-out: Activity
[5] = Induction of apoptosis in hypoxia-induced human PASMC cells assessed as necrotic cells at 5 uM incubated for 12 hrs by Annexin V/FITC staining based flow cytometry analysis (reference value: 0.68%); assay type: functional

## c1cc(-c2cnn3cc(-c4ccc(OCCN5CCCCC5)cc4)cnc23)ccn1 [DORSOMORPHIN]
[1]
  IC50: 5.48 µM
[2]
  Activity: 1.7%
[3]
  Activity: 7.31%
[4]
  viability at 5 µM: 89.4%
[5]
  Activity: 1.56%
